# In US20250059232A1, “PENTAPEPTIDE AND USE THEREOF” (ENSOL BIOSCIENCES INC., priority 2021, published 2025):
# Tests used:
# MDA-MB-231 = MDA-MB-231 xenograft in BalB/c nude mouse: survival rate; assay type: in vivo; settings: 100 mg/kg subcutaneously 3 times weekly, co-administered with paclitaxel 20 mg/kg once weekly
# Description: To investigate survival rates of the paclitaxel-only administration group and the group co-administered with paclitaxel and the peptide of Example 1, experiments described below were performed. 5×10^6 cells/head of the human triple negative breast cancer cell line MDA-MB-231 were mixed with Matrigel and PBS (1:1). 100 ul of the mixture was injected into the right third fat pad of 7-week-old female BalB/c nude mouse. After the transplantation, drug administration started from an average tumor size of 70 mm^3. Paclitaxel 20 mg/kg was administered once weekly, and the peptide 100 mg/kg of Example 1 was administered subcutaneously 3 times weekly at 48-hour intervals, 48 hours after the paclitaxel administration. Each test group was administered for 12 weeks and animal survival was observed daily. FIG. 10 is a graph illustrating survival rates over time after sample administration in animal experimentation. In FIG. 10, the x-axis represents the elapsed time (days) after administration and the y-axis represents survival rates (%). […] In the case of the group co-administered with the peptide of Example 1, the first deceased mouse occurred on Day 60 of administration.
# EL4 = EL4 cell viability (CCK-8) with doxorubicin; assay type: cell-based, mouse; settings: 300 uM with doxorubicin 20 nM; 24 hours; p<0.05
# Description: In order to investigate the cell viability by the combined administration of doxorubicin and the peptide of Example 1 compared to the group administered with only doxorubicin, which is an anticancer chemotherapeutic agent, experiments described below were conducted. 8×10^3 Cells of the mouse lymphoma cell line EL4 (ATCC) were seeded in 96 wells, which then were treated with doxorubicin 20 nM and peptide 300 uM of Example 1 for each condition. After 24 hours of culturing, the cell viability of the EL4 cells was measured by CCK-8 addition. FIG. 11 is a graph illustrating the changes in EL4 cell viability over culturing time in an anticancer effect evaluation test. In FIG. 11, the x-axis represents culturing time and the y-axis represents cell viability (%).
# [1] = system: PC3 cells co-cultured with NK92 cells; experiment: PC3/NK92 co-culture: Granzyme B expression by immuno-fluorescence staining; assay type: cell-based, human; settings: 300 uM with 10 μg/ml anti-PD-L1; 12 hours
# Description: The experiment described below was performed to identify the tumor suppression mechanism of the combination treatment of the peptide of Example 1 and anti-PD-L1, which is an immune checkpoint inhibitor. First, prostate cancer cell lines PC3 (ATCC) and NK92 (Immunotherapy Research Center, Korea Research Institute of Bioscience and Biotechnology) were co-cultured. 7.8×10^4 PC3 cells were seeded in 4-well chambers and stabilized by culturing overnight, and the PC3 cells were treated with 10 μg/ml of the anti-PD-L1 and 300 uM of the peptide of Example 1 for each condition while the same number of NK92 cells were additionally seeded. After 12 hours, the NK92 cells were removed by washing, and only tumor cells were fixed. Next, the expression level of Granzyme B was determined through immuno-fluorescence staining. The Granzyme B expression levels were calculated as proportions relative to the control. FIG. 12 is a graph showing a Granzyme B expression level for each test group in an anticancer effect evaluation test, in which the x-axis represents the test group and the y-axis represents the Granzyme B expression level (%) relative to the control group.
# A549 = A549 cell viability (CCK-8) in NK92 co-culture with anti-PD-L1; assay type: cell-based, human; settings: 300 uM with 10 ug/ml anti-PD-L1, 24/48 hours of co-culturing
# Description: The experiment described below was performed to evaluate the tumor cell proliferation inhibitory effect of the combination treatment of the peptide of Example 1 and the anti-PD-L1, which is an immune checkpoint inhibitor. First, 5×10^3 cells of a human prostate cancer cell line PC3, 5×10^3 cells of a human lung cancer cell line A549 (Korean Cell Line Bank), and 1×10^4 cells of a human triple negative breast cancer cell line MDA-MB-231 (ATCC) were seeded in 96 wells and stabilized by culturing overnight. Then, the seeded cells were treated with 10 ug/ml of the anti-PD-L1 and 300 uM of the peptide of Example 1, for each condition while NK92 cells for 5×10^3 cells of each of the PC3 cell line and the MDA-MB-231 cell line and 2.5×10^3 cells of the A549 cell line were additionally seeded. After 24/48/72 hours of co-culturing (for PC3 and MDA-MB-231) and 24/48 hours of co-culturing (for A549), the NK92 cells were removed by washing, and the cancer cell viability was measured by CCK-8 addition. FIG. 15 is a graph illustrating the changes in PC3 cell viability over culturing time for each test group in an anticancer effect evaluation test. In FIG. 15, the x-axis represents culturing time and the y-axis represents cell viability (%). FIG. 16 is a graph illustrating the changes in A549 cell viability over culturing time for each test group in an anticancer effect evaluation test. […]
# PC3 = PC3 cell viability (CCK-8) in NK92 co-culture with anti-PD-1; assay type: cell-based, human; settings: 100 or 300 uM with 10 μg/ml anti-PD-1, 48/72 hours, P<0.05
# Description: The experiment described below was performed to evaluate the tumor cell proliferation inhibitory effect of the combination treatment of the peptide of Example 1 and anti-PD-1, which is another immune checkpoint inhibitor. First, 5×10^3 cells of a human prostate cancer cell line PC3 were seeded in 96 wells and stabilized by culturing overnight. Next, 5×10^3 NK92 cells were additionally seeded, and the test cells were treated with 10 μg/ml of the anti-PD-1 and 100 or 300 uM of the peptide of Example 1 for each condition. After 48/72 hours of co-culturing, the NK92 cells were removed by washing, and the cell viability of the PC3 cells was measured by CCK-8 addition. FIG. 18 is a graph illustrating changes in PC3 cell viability over culturing time for each test group in an anticancer effect evaluation test. In FIG. 18, the x-axis represents culturing time and the y-axis represents cell viability (%).
substance,measurement,setting,value
"Ac-QLHLD-OH [Example 1, acetyl-QLHLD]",Day of administration on which the first deceased mouse occurred,MDA-MB-231,60 days
same,Cancer cell viability compared to the group treated with only doxorubicin,EL4,significant decrease in cancer cell viability
same,Granzyme B expression in tumor cells compared to the group treated with only anti-PD-L1,[1],increased significantly
same,Cancer cell viability compared to the group treated with only anti-PD-L1,A549,significant decrease in cancer cell viability
same,Cancer cell viability compared to the checkpoint-inhibitor-only group,PC3,significant decrease
